Laboratory results reported in publication PMC9893751, “Synthesis of Benzimidazole-1,2,4-triazole Derivatives as Potential Antifungal Agents Targeting 14α-Demethylase” (ACS Omega, 2023).
In brackets after ≈: the same amount, converted by molar mass.

Key:
[1] = test system: C. albicans (ATCC 24433); assay: In vitro antifungal activity (CLSI) against C. albicans; format: cell-based; conditions: for MIC: Candida albicans, ATCC24433
Excerpt: (§1) Voriconazole and fluconazole (against candida strains) were used as standard reference drugs.

[2] = test system: C. krusei (ATCC 6258); assay: In vitro antifungal activity (CLSI) against C. krusei; format: cell-based; conditions: for MIC: Pichia kudriavzevii, ATCC6258
Excerpt: as §1

[3] = test system: C. glabrata (ATCC 9); assay: In vitro antifungal activity (CLSI) against C. glabrata; format: cell-based; conditions: for Antifungal activity (MIC), C. glabrata / MIC: C. glabrata ATCC 9; for Effectiveness against C. glabrata compared with fluconazole / Effectiveness against C. glabrata compared with voriconazole: from MIC values; for MIC: Nakaseomyces glabratus, ATCC9
Excerpt: as §1

[4] = test system: C. parapsilopsis (ATCC 22019); assay: In vitro antifungal activity (CLSI) against C. parapsilosis; format: cell-based; conditions: for MIC: Lodderomyces parapsilosis, ATCC22019
Excerpt: as §1

[5] = test system: L929 cell lines; assay: Cytotoxicity MTT assay on L929 fibroblasts; format: cell-based
Procedure: (§2) The cytotoxic effect of compounds 6a–6l was evaluated against L929 cell lines. For preliminary screening, the cytotoxic bioactivity of synthesized compounds was evaluated in vitro against L929 cell lines with the MTT assay. […] The effect of the compounds 6a–6l on the viability of L929 cell lines was analyzed by MTT assay as described in the previous work.[45]

[6] = Cytotoxicity MTT assay on L929 fibroblasts; format: cell-based; conditions: mouse, L929 fibroblast cells; 100 μM, 48 h, L929 cell lines, MTT
Procedure: as §2

Row | Compound | Antifungal activity (MIC), C. albicans [1] [µg/mL] | Antifungal activity (MIC), C. krusei [2] [µg/mL] | Antifungal activity (MIC), C. glabrata [3] [µg/mL] | Effectiveness against C. glabrata compared with fluconazole [3] | Effectiveness against C. glabrata compared with voriconazole [3] | Antifungal activity (MIC), C. parapsilosis [4] [µg/mL] | cell viability (%) ([5]; 100 µM) | MIC [1] [µg/mL] | MIC [2] [µg/mL] | MIC [3] [µg/mL] | MIC [4] [µg/mL] | viability at 48 h, 100 µM [6] [%] | melting point [°C] | cell viability (%) ([5]; 100 μM, 48 h, L929 cell lines, MTT) | IC50 ([5]; Mus musculus, L929 fibroblasts, MTT, maximum dose 100 μM, 48 h, read-out: IC50 against L929) [µM]
1 | 2-(4-(5-((2-(4-Nitrophenyl)-2-oxoethyl)thio)-4-phenyl-4H-1,2,4-triazol-3-yl)phenyl)-1H-benz[d]imidazole-5(6)-carbonitrile [6a] | 31.25 | 125 | 1.95 | two times more effective | same activity | 62.5 | 34 ± 6.19 | – | – | – | – | – | – | – | –
2 | COc1ccc(C(=O)CSc2nnc(-c3ccc(-c4nc5cc(C#N)ccc5[nH]4)cc3)n2-c2ccccc2)cc1 [6b, 2-(4-(5-((2-(4-Methoxyphenyl)-2-oxoethyl)thio)-4-phenyl-4H-1,2,4-triazol-3-yl)phenyl)-1H-benz[d]imidazole-5(6)-carbonitrile] | – | – | – | four times more effective | two times more effective | – | – | 31.2 (≈ 57.6 µM) | 125 (≈ 230 µM) | 0.97 (≈ 1.79 µM) | 31.2 (≈ 57.6 µM) | 32.1 ± 1.38 | 177.6 | – | –
3 | N#Cc1ccc(C(=O)CSc2nnc(-c3ccc(-c4nc5cc(C#N)ccc5[nH]4)cc3)n2-c2ccccc2)cc1 [6c, 2-(4-(5-((2-(4-Cyanophenyl)-2-oxoethyl)thio)-4-phenyl-4H-1,2,4-triazol-3-yl)phenyl)-1H-benz[d]imidazole-5(6)-carbonitrile] | 31.25 | 125 | 1.95 | two times more effective | same activity | 31.25 | 30.9 ± 1.42 | – | – | – | – | – | – | – | –
4 | N#Cc1ccc2[nH]c(-c3ccc(-c4nnc(SCC(=O)c5ccc(F)cc5)n4-c4ccccc4)cc3)nc2c1 [6d, 2-(4-(5-((2-(4-Fluorophenyl)-2-oxoethyl)thio)-4-phenyl-4H-1,2,4-triazol-3-yl)phenyl)-1H-benz[d]imidazole-5(6)-carbonitrile] | 62.5 | 125 | 1.95 | two times more effective | same activity | 125 | 34.2 ± 5.13 | – | – | – | – | – | – | – | –
5 | N#Cc1ccc2[nH]c(-c3ccc(-c4nnc(SCC(=O)c5ccc(-c6ccccc6)cc5)n4-c4ccccc4)cc3)nc2c1 [6e, 2-(4-(5-((2-([1,1′-Biphenyl]-4-yl)2-oxoethyl)thio)-4-phenyl-4H-1,2,4-triazol-3-yl)phenyl)-1H-benz[d]imidazole-5(6)-carbonitrile] | 62.5 | 125 | 1.95 | two times more effective | same activity | 62.5 | – | – | – | – | – | – | – | 40 ± 8.71 | –
6 | N#Cc1ccc2[nH]c(-c3ccc(-c4nnc(SCC(=O)c5ccc(Br)cc5)n4-c4ccccc4)cc3)nc2c1 [6f, 2-(4-(5-((2-(4-Bromophenyl)-2-oxoethyl)thio)-4-phenyl-4H-1,2,4-triazol-3-yl)phenyl)-1H-benz[d]imidazole-5(6)-carbonitrile] | 62.5 | 125 | 1.95 | two times more effective | same activity | 62.5 | 27.6 ± 1.02 | – | – | – | – | – | – | – | –
7 | N#Cc1ccc2[nH]c(-c3ccc(-c4nnc(SCC(=O)c5ccc(Cl)c(Cl)c5)n4-c4ccccc4)cc3)nc2c1 [6g, 2-(4-(5-((2-(3,4-Dichlorophenyl)-2-oxoethyl)thio)-4-phenyl-4H-1,2,4-triazol-3-yl)phenyl)-1H-benz[d]imidazole-5(6)-carbonitrile] | 125 | 250 | 1.95 | two times more effective | same activity | 31.25 | 34.6 ± 3.51 | – | – | – | – | – | – | – | –
8 | N#Cc1ccc2[nH]c(-c3ccc(-c4nnc(SCC(=O)c5ccc(F)cc5F)n4-c4ccccc4)cc3)nc2c1 [6h, 2-(4-(5-((2-(2,4-Difluorophenyl)-2-oxoethyl)thio)-4-phenyl-4H-1,2,4-triazol-3-yl)phenyl)-1H-benz[d]imidazole-5(6)-carbonitrile] | 62.5 | 62.5 | 1.95 | two times more effective | same activity | 62.5 | 28.1 ± 1.48 | – | – | – | – | – | – | – | –
9 | N#Cc1ccc2nc(-c3ccc(-c4nnc(SCC(=O)c5ccc(Cl)cc5)n4-c4ccccc4)cc3)[nH]c2c1 [6i, 2-(4-(5-((2-(4-Chlorophenyl)-2-oxoethyl)thio)-4-phenyl-4H-1,2,4-triazol-3-yl)phenyl)-1H-benz[d]imidazole-5(6)-carbonitrile] | – | – | – | four times more effective | two times more effective | – | – | 62.5 (≈ 114 µM) | 125 (≈ 229 µM) | 0.97 (≈ 1.77 µM) | 31.2 (≈ 57.1 µM) | 53.6 ± 2.82 | 197.9 | – | > 100
10 | N#Cc1ccc2nc(-c3ccc(-c4nnc(SCC(=O)c5ccc(Cl)cc5Cl)n4-c4ccccc4)cc3)[nH]c2c1 [6j, 2-(4-(5-((2-(2,4-Dichlorophenyl)-2-oxoethyl)thio)-4-phenyl-4H-1,2,4-triazol-3-yl)phenyl)-1H-benz[d]imidazole-5(6)-carbonitrile] | – | – | – | four times more effective | two times more effective | – | – | 62.5 (≈ 107 µM) | 125 (≈ 215 µM) | 0.97 (≈ 1.67 µM) | 31.2 (≈ 53.7 µM) | 32.5 ± 1.34 | 206.5 | – | –
11 | N#Cc1ccc2[nH]c(-c3ccc(-c4nnc(SCC(=O)c5cccc([N+](=O)[O-])c5)n4-c4ccccc4)cc3)nc2c1 [6k, 2-(4-(5-((2-(3-Nitrophenyl)-2-oxoethyl)thio)-4-phenyl-4H-1,2,4-triazol-3-yl)phenyl)-1H-benz[d]imidazole-5(6)-carbonitrile] | 31.25 | 125 | 1.95 | two times more effective | same activity | 31.25 | 30.3 ± 0.41 | – | – | – | – | – | – | – | –
12 | N#Cc1ccc2[nH]c(-c3ccc(-c4nnc(SCC(=O)c5ccccc5)n4-c4ccccc4)cc3)nc2c1 [6l, 2-(4-(5-((2-Oxo-2-phenylethyl)thio)-4-phenyl-4H-1,2,4-triazol-3-yl)phenyl)-1H-benz[d]imidazole-5(6)-carbonitrile] | 31.25 | 125 | 1.95 | two times more effective | same activity | 31.25 | 37.6 ± 3.55 | – | – | – | – | – | – | – | –
13 | OC(Cn1cncn1)(Cn1cncn1)c1ccc(F)cc1F [fluconazole, reference compound] | – | – | – | – | – | – | – | 7.81 (≈ 25.5 µM) | 7.81 (≈ 25.5 µM) | 3.9 (≈ 12.7 µM) | 3.9 (≈ 12.7 µM) | – | – | – | –
14 | C[C@@H](c1ncncc1F)[C@](O)(Cn1cncn1)c1ccc(F)cc1F [voriconazole, reference compound] | – | – | – | – | – | – | – | 3.9 (≈ 11.2 µM) | 3.9 (≈ 11.2 µM) | 1.95 (≈ 5.58 µM) | 3.9 (≈ 11.2 µM) | – | – | – | –
